Results from patent US20150182482A1, “EPROTIROME FOR USE IN THE PREVENTION AND/OR TREATMENT OF HAIR DISORDERS AND COMPOSITIONS THEREOF” (DR. AUGUST WOLFF GMBH & CO. KG ARZNEIMITTEL, priority 2012, published 2015).
Entries after “also recorded” stand apart in the source; their conditions may differ. Where two headings read alike, the source gives them in different places.

What was measured:
[1] = tested on: human scalp hair follicles; assay: HF cycle staging in human hair follicle organ culture; format: cell-based; details: for hair cycle staging, macroscopic and microscopic, overall comparison: summary of the examples
Description: (§1) Normal human scalp skin was obtained from women undergoing routine face-lift surgery after informed consent.
(§2) Test system: Philpott model (Philpott et al., J. Cell. Mol. Life Sci., 1990, 97: 463-471)
(§3) Mircodissected anagen VI hair follicles in 3 or 4 groups (3 HFs/well) were cultured at 6 days in a 24-well plate with 500 μl Williams E medium (Biochrom) supplemented with 100 IU/ml penicillin, 10 μg/ml streptomycin (Gibco), 10 μg/ml insulin (Sigma), 10 ng/ml hydrocortisone (Sigma) and 2 mmol/1 L-glutamine (Invitrogen).
(§4) Eprotirome, TRIAC, PF-277343 (1 pM, 100 pM) or vehicle were administered once for each change of medium (i.e. every 48 h).
(§5) Anagen HFs and HFs were immediately embedded in Shandon Cryomatrix and snap frozen in liquid nitrogen. Six longitudinal sections of HFs were processed for immunohistological stainings.
HF cycle staging was carried out according to defined morphological criteria, and the percentage of HFs in anagen and early, mid, or late catagen was determined.

[2] = tested on: hair matrix keratinocytes; assay: Ki-67/TUNEL double staining, proliferation and apoptosis measurements; format: cell-based, human
Description: as §1, §3, §5
To evaluate apoptotic cells in co-localization with a proliferation marker Ki-67, a Ki-67/terminal dUTP nick-end labelling (TUNEL) double-staining method was used. […] TUNEL-positive cells were visualized by an antidigoxigenin fluorescein isothiocyanate-conjugated antibody (ApopTag kit), whereas Ki-67 was detected by a rhodamine-labelled goat antimouse antibody (Jackson ImmunoResearch, West Grove, Pa.). Negative controls were performed by omitting terminal deoxynucleotidyl transferase and the Ki-67 antibody. Counterstaining was performed with 4′,6-diamidino-2-phenylindole (DAPI) (Roche Molecular Biochemicals GmbH, Mannheim, Germany). Quantitative immunohistomorphometry was performed; Ki-67-, TUNEL-, or DAPI-positive cells were counted in a previously defined reference region of the HF matrix and epidermis, and the percentage of Ki-67/TUNEL-positive cells was determined.

hair growth [3] = details: monkey; cited from earlier work
[4] = tested on: human scalp hair follicles; assay: Hair shaft elongation in human hair follicle organ culture (Philpott model); format: cell-based
Description: as §1, §3
Hair shaft length measurements of HFs were performed every second day on individual HFs using a Zeiss inverted binocular microscope with an eyepiece measuring graticule.

hair growth [5] = details: mouse; cited from earlier work
MTCO1 = MTCO1 protein expression (immunoreactivity) in cultured hair follicles; format: cell-based, human
Description: as §1, §2, §3, §4, §5

[6] = tested on: tyrosinase activity of hair follicles; assay: Tyrosinase activity of cultured hair follicles; format: cell-based, human
Description: as §1, §2, §3, §4, §5

[7] = tested on: human scalp hair follicles; assay: Hair pigmentation, quantitative Masson-Fontana melanin staining of cultured hair follicles; format: cell-based; details: for melanin content, overall comparison: summary of the examples
Description: as §1, §2, §3, §4, §5
For histochemical visualization of melanin, Masson-Fontana staining was performed on frozen sections. Melanin was stained as brown dots and the degree of pigmentation was assessed by quantitative Masson-Fontana as described (Ito et al., Br. J. Dermatol, 2005, 152: 623-631). This method is a very sensitive and reliable indicator of changes in melanin synthesis, as shown by standard tyrosinase expression and enzyme activity assays (Kauser et al, FASEB J. 2006, 20:882-95). Staining intensity was analyzed in a defined reference region of the HF pigmentary unit and, using the ImageJ software (National Institute of Health).

TGFβ2 = TGFβ2 immunoreactivity in cultured hair follicles; format: cell-based, human
Description: as §1, §2, §3, §4, §5

[8] = tested on: outer root sheath cells, dermal papilla cells, and fibrous sheath cells of hair follicles; details: all these types of cells, significantly; cited from earlier work
alopecia areata = details: topical; cited from earlier work
CD rats = details: topical; cited from earlier work
human hair follicles [9] = details: cited from earlier work
human hair follicles [10] = details: physiological level of free T3; cited from earlier work
SKH-1 mice = details: topical; cited from earlier work
[11] = Penetration in human skin; format: in vitro ADME
Stability = format: physicochemical
[12] = cited from earlier work
[13] = person two, after 6 days, macroscopically and microscopically
[14] = occipital scalp HFs, person two, 6 days culture
[15] = person two, 100 pM, anagen HFs and all HFs

Compound: Cc1cc(-n2ncc(=O)[nH]c2=O)cc(C)c1Oc1ccc(O)c(Cc2ccc(F)cc2)c1 [PF-277343]
- macroscopic HF assessment (hair cycle staging) ([1]; person three, 1 pM): prematurely induces catagen
- quantitative hair cycle histomorphometry ([1]; person three, 1 pM and 100 pM): promoted premature catagen development
- hair cycle staging, macroscopic and microscopic, overall comparison [1]: caused hair follicles to enter the catagen phase prematurely
- proliferation (Ki-67) of hair matrix keratinocytes ([2]; person three): did not show effects
- apoptosis (TUNEL) ([2]; person three, 100 pM): slightly inhibited (not significant)
- efficacy in hair growth model (hair growth [3]): efficacious
- hair shaft elongation ([4]; occipital scalp HFs, person three, 1 pM): slight (not significant) tendency towards inhibition
- hair shaft elongation, overall comparison ([4]; summary of the examples): tendency of a slight inhibition
- efficacy in hair growth model (hair growth [5]): efficacious
- MTCO1 protein expression (MTCO1; person three): no significant change
- tyrosinase activity ([6]; person three, 100 pM, anagen HFs and all HFs): slightly upregulated
- tyrosinase activity upregulation, significance ([6]; person three, 100 pM, only anagen HFs): significant
- melanisation ([7]; person three, 1 pM and 100 pM, all HFs): significantly decreased
- melanin production ([7]; person three, 100 pM, only anagen HFs (significant)): strong reduction
- melanin content, overall comparison [7]: decrease in melanin content
- TGFβ2 immunoreactivity (TGFβ2; person three, 100 pM concentration group): significantly reduced

Compound: N[C@@H](Cc1cc(I)c(Oc2ccc(O)c(I)c2)c(I)c1)C(=O)O [T3, 3,5,3′-triiodo-L-thyronine]
- proliferation and/or metabolism of hair follicle cell types [8]: stimulated
- efficacy versus placebo (alopecia areata): not more effective than placebo
- safety (alopecia areata): safe
- epidermal proliferation, dermal thickening, and hair growth (CD rats): stimulate
- anagen duration (human hair follicles [9]): prolong
- apoptosis of hair matrix keratinocytes (Ki-67/TUNEL staining) (human hair follicles [9]): inhibited
- hair shaft elongation in vitro (human hair follicles [9]): did not translate to a significantly altered hair shaft elongation
- melanin synthesis in human hair follicles (human hair follicles [9]): stimulate
- human hair survival in vitro (human hair follicles [10]): significantly enhanced
- epidermal proliferation, dermal thickening, and hair growth (SKH-1 mice): stimulate

Compound: N[C@@H](Cc1cc(I)c(Oc2cc(I)c(O)c(I)c2)c(I)c1)C(=O)O [T4, 3,5,3′,5′-tetraiodo-L-thyronine]
- anagen duration (human hair follicles [9]): prolong
- apoptosis of hair matrix keratinocytes (Ki-67/TUNEL staining) (human hair follicles [9]): inhibited
- hair matrix keratinocyte proliferation (Ki-67/TUNEL staining) (human hair follicles [9]): stimulated
- hair shaft elongation in vitro (human hair follicles [9]): did not translate to a significantly altered hair shaft elongation
- melanin synthesis in human hair follicles (human hair follicles [9]): stimulate

Compound: O=C(O)Cc1cc(I)c(Oc2ccc(O)c(I)c2)c(I)c1 [TRIAC, Triiodothyroacetic Acid]
- anagen (prolongation) [1, 13]: prolonged anagen
- catagen development [1, 13]: inhibited catagen development
- hair cycle staging, macroscopic and microscopic, overall comparison [1]: able to prolong anagen and to inhibit catagen development
- penetration in human skin [11]: inferior penetration
- apoptosis (TUNEL) ([2]; person two): inhibited (not significant)
- proliferation (Ki-67) of hair matrix keratinocytes ([2]; person two): slightly upregulated (not significant)
- hair shaft elongation (inhibition), significance ([4]; occipital scalp HFs, person two, 1 pM): significant effect
- hair shaft elongation [4, 14]: slight inhibition
- stability (Stability): low stability
- MTCO1 protein expression (MTCO1; person two): no significant change
- tyrosinase activity ([6]; person two, all HFs): downregulated
- tyrosinase activity downregulation, significance ([6]; person two, all HFs, 0.1 pM and 1 pM groups): significant
- hair follicle melanin content ([7]; person two, all HFs): No significant effects
- melanin content, overall comparison [7]: no effects
- TGFβ2 immunoreactivity reduction, significance (TGFβ2; person two, 1 pM and 100 pM concentration groups): significant effect
- TGFβ2 immunoreactivity (TGFβ2; person two, all concentrations): reduced

Compound: CC(C)c1cc(Oc2c(Br)cc(NC(=O)CC(=O)O)cc2Br)ccc1O [eprotirome, 3-[[3,5-dibromo-4-[4-hydroxy-3-(1-methylethyl)phenoxy]phenyl]amino]-3-oxo-propanoic acid]
- effects on the heart ([12]; clinical trial in humans): did not provoke detectable effects
- safety and tolerability ([12]; clinical trial in humans): safe and well tolerated
- lowering of total and LDL cholesterol levels ([12]; moderately overweight and hypercholesterolemic subjects): up to 40%
- duration of anagen, macroscopically ([1]; person one): no major effect
- hair cycle histomorphometry ([1]; person one): clear anagen-prolonging effect
- number of anagen HFs [1, 13]: significantly increased
- number of catagen HFs [1, 13]: decreased
- hair cycle staging, macroscopic and microscopic, overall comparison [1]: able to prolong anagen and to inhibit catagen development; also recorded: clearly prolongs anagen
- proliferation of the hair matrix keratinocytes (Ki-67) ([2]; person one, 100 pM): increased proliferation
- apoptosis (TUNEL) ([2]; person two): no change
- proliferation (Ki-67) of hair matrix keratinocytes ([2]; person two): tendentially upregulated
- proliferation of hair matrix keratinocytes, overall ([2]; summary of the examples): increased proliferation
- hair shaft elongation ([4]; occipital scalp HFs, person one, both doses (1 pM, 100 pM)): slightly stimulated
- hair shaft elongation [4, 14]: did not significantly affect
- MTCO1 immunoreactivity (MTCO1; person one): significantly up-regulates
- MTCO1 protein expression (MTCO1; person two): no significant change
- tyrosinase activity ([6]; person one, 100 pM group): upregulated
- tyrosinase activity upregulation, significance ([6]; person one, 100 pM, all HFs): significant
- tyrosinase activity [6, 15]: slightly upregulated
- tyrosinase activity, overall ([6]; summary of the examples): upregulation
- melanin content ([7]; person one, 100 pM, anagen HFs and all HFs): slightly increased
- melanin content increase, significance ([7]; person one, 100 pM, only anagen HFs): significant
- melanisation [7, 15]: slightly increased
- melanin content, overall comparison [7]: increased melanin content
- TGFβ2 immunoreactivity (TGFβ2; person one): significantly reduced
- TGFβ2 immunoreactivity reduction, concentration dependence (TGFβ2; person one, 100 pM): strongest effect
- TGFβ2 immunoreactivity (TGFβ2; person two, 1 pM concentration group): significantly reduced
- expression of TGFβ2, overall (TGFβ2; summary of the examples): significant reduced expression
